Laboratory results reported in patent US4678783A, “Substituted isoquinolinesulfonyl compounds” (Asahi Kasei Kogyo Kabushiki Kaisha, priority 1984, dated 1987).
Where two headings read alike, the source gives them in different places.

Columns and labels:
basilar artery = experiment: Effect on a "Two-Hemorrhage" Canine Model of Delayed Cerebral Vasospasm; type: in vivo, Mongrel dogs; conditions: intravenous infusion over 30 minutes on Day 7
Description: The isoquinolinesulfonyl compound represented by the formula (I) and salt thereof with a pharmacologically acceptable acid according to the present invention can increase the diameter of a blood vessel, and have an excellent smooth muscle relaxation action for a blood vessel, an excellent flow volume increase action for blood and an antihypertensive action. […] The above-mentioned relaxation action for a blood vessel was confirmed by the relaxation of the mesenteric artery of a rabbit in accordance with the method described later. The above-mentioned flow volume increase action for blood was confirmed by the blood flow volume increase of dog's femoral and vertebral arteries in accordance with the method described later. The above-mentioned antihypertensive action was confirmed by the indirect tail plethysmographic method of systolic blood pressure after oral administration of test drugs using male spontaneously hypertensive rats in accordance with the method described later. The effects of the isoquinolinesulfonyl derivatives of this invention on a "two-hemorrhage" canine model of delayed cerebral vasospasm were examined. The method of inducing a cerebral vasospasm was the same as that reported by Varsos et al. (Journal of Neurosurgery, volume 58, p11-17, 1983). […] As far as is known, these isoquinolinesulfonyl derivatives are the first drugs which can reverse "two-hemorrhage" cerebral vasospasm by its systemic use.
Mongrel dogs of either sex weighing 7 to 11 kg were used. All procedures were performed under anesthesia with sodium pentobarbital (20 to 30 mg/kg, intravenous administration) after premedication with ketamine hydrochloride (12 mg/kg, intramuscular administration) and spontaneous respiration through an endotracheal intubation.
The method of inducing a "two-hemorrhage" canine model of subarachnoid hemorrhage was essentially the same as that reported by Varsos et al. (Journal of Neurosurgery, volume 58, p 11-17, 1983); two successive administrations were effected, two days apart (on Day 1 and Day 3), of fresh autogenous blood into the cisterna magna. A control angiogram was taken by a direct puncture of the vertebral artery on Day 1 before the blood injection. The second angiogram was made to confirm the presence of a vasospasm on Day 7.
On Day 7, after the occurrence of a chronic vasospasm was confirmed by the second angiogram, the compounds of the present invention were intrvenously infused from the femoral vein with a Harvard pump over a period of 30 minutes. Angiograms were taken from the initiation of the infusion.
The diameter of the basilar artery was measured on the angiogram by means of a microdensitometer (SAKURA DENSITOMETER PD-7R). The effect on this cerebral vasospasm model of the compounds of the present invention was expressed as an increased percentage of the diameter after the infusion of the compounds of the present invention to that before the infusion.
Effect of the compounds of the present invention on a "two-hemorrhage" canine model of delayed cerebral vesospasm was examined according to the method as mentioned hereinbefore.

Acute Toxicity = conditions: mouse, in vivo; ddY male mice
Method: Acute toxicity of the compounds of the present invention was determined according to the method given below, and the results are shown in Table 15. […] It is known from the results that the acute toxicity of the compounds of the present invention is satisfactorily low.
Using ddY male mice, acute toxicity of the compounds of the present invention was examined according to the method proposed by K. Takagi et al. (K. Takagi and H. Ozawa, "Experimental Techniques in Pharmacology," p200-206 (1960), NANZANDO CO., LTD.).
Acute toxicity test of the compounds of the present invention was effected according to the method as mentioned hereinbefore.

[1] = tested on: male spontaneously hypertensive rats (SHR); experiment: Reduction of Blood Pressure (systolic, tail plethysmographic method, oral); type: in vivo, rat (SHR, Wister Kyoto); conditions: 100 mg/kg
Method: Male spontaneously hypertensive rats (SHR, Wister Kyoto) weighing 300 to 350 g were used. Systolic blood pressure was measured indirectly by the tail plethysmographic method in conscious SHR, just prior to, and 1, 2, 4 and 6 hours after oral administration of test drugs. Test drugs, dissolved in deionized water, were administered orally in a volume of 10 ml-solution/kg-rat. Reduction in systolic blood pressure (ΔP, mmHg) was calculated by substracting a systolic blood pressure after administration from that just prior to administration.
Effect of the compounds of the present invention on reduction of blood pressure was examined according to the method as mentioned hereinbefore.

femoral artery = experiment: Blood Flow Volume Increase of Femoral Artery; type: in vivo, Mongrel dogs; conditions: intravenous, 0.3 mg/kg, anesthetized dogs
Method: (§1) A plethysmographic probe (manufactured and sold by NIHON KODEN CO., LTD.) was mounted on the femoral and vertebral arteries, and blood flow volume was measured by means of a electromagnetic blood flowmeter (type:MF-27, manufactured and sold by NIHON KODEN CO., LTD.). Under these conditions, compounds of the present invention were intravenously administered through a polyethylene tube inserted to a femoral veinlet, and change in blood flow volume was measured by means of the electromagnetic blood flowmeter.
(§2) Effect of the compounds of the present invention on dilation of femoral and vertebral arteries was examined according to the method as mentioned hereinbefore.

vertebral artery = experiment: Blood Flow Volume Increase of Vertebral Artery; type: in vivo, Mongrel dogs; conditions: intravenous, 0.3 mg/kg, anesthetized dogs
Method: as §1, §2

[2] = tested on: mesenteric artery of a rabbit; experiment: Relaxation of Mesenteric Artery (KCl-contracted spiral strip); parameters: species or system rabbit of Japanese local variety; conditions: Oryctolagus cuniculus
Method: A rabbit of Japanese local variety weighing about 3 kg was subjected to blood-letting to death. Then, abdomen of the rabbit was dissected to pick up a mesenteric artery. […] Thus, the shrinkage and relaxation of the artery was ready to be measured as a load on the transducer. To the organ bath, KCl was added in an amount which makes the artery shrink at a half length that in 15 to 20 mM aqueous solution. Then, hydrochlorides of the compounds of the present invention were added to the organ bath to observe relaxation effect on the artery.
Effect of the compounds of the present invention on relaxation of mesenteric artery was examined according to the method as mentioned hereinbefore.

SMILES	Increase in diameter of basilar artery (basilar artery; 1 mg/kg) [%]	Increase in diameter of basilar artery (basilar artery; 3 mg/kg) [%]	Increase in diameter of basilar artery (basilar artery; 10 mg/kg) [%]	LD50 (Acute Toxicity) [mg/kg]	ΔPmax (maximally reduced blood pressure) [1] [mmHg]	Increase in femoral artery blood flow (femoral artery) [%]	Increase in vertebral artery blood flow (vertebral artery) [%]	EC50 ([2]; concentration of the hydrochloride attaining 50% of complete relaxation, rabbit mesenteric artery contracted with KCl, read-out: ED50 (the source's name)) [nM]	EC50 ([2]; read-out: ED50) [nM]
O=S(=O)(c1cccc2cnccc12)N1CCCNCC1 [Compound (1), 1-(5-isoquinolinesulfonyl)homopiperazine]	21	33	45	73.5	80	48	160	800	–
O=S(=O)(c1cccc2c(O)nccc12)N1CCCNCC1 [Compound (83), 1-(1-hydroxy-5-isoquinolinesulfonyl)homopiperazine]	–	19	20	145	42	30	48	–	3000
